Assay results from US9884862B2, “Pyridopyrimidinedione derivatives” (Novartis AG, priority 2014, dated 2018).

Key:
[1] = test system: CFTR-Y122X; experiment: CFTR-Y122X assay (dual reporter isogenic Hek293 cell lines, Renilla luminescence readthrough); format: cell-based; conditions: Homo sapiens, HEK293, 24 h, nonsense mutation suppression, 24 h incubation, tested up to 100 μM; for Emax: 100% = 14 mM paromomycin, read-out: Amax
From the text: Activity of compounds of the present invention was examined in recombinant, dual reporter isogenic Hek293 cell lines (“CFTR-Y122X assay”). The engineered reporter constructs contained the 18 bp sequence stretch corresponding to a common Y122X PTC mutation in CFTR class I mutant patients (see Sermet-Gaudelus, BMC Medicine, 2007, 5(5)). Instead of a tyrosine (Y) in position 122 of the CFTR protein a TGA stop codon interrupts the open reading frame (Y122X) of the corresponding mRNA. This TGA stop codon triplet (followed by the pyrimidine base cytosine) is permissive to aminoglycoside mediated translational readthrough which served as positive control for high throughput screening. A corresponding TAA stop codon variant and a wildtype non mutated construct was used for confirmation and counter screening. The CFTR sequence was sandwiched between an eGFP reporter, and a triple myc tag sequence fused to a full length Renilla reporter. All sequences, including an intron containing one positioned pre-eGFP (b-globin intron) were cloned in frame. The corresponding expression constructs were stably expressed in the isogenic HEK-R4 cell host (Invitrogen Incorp.) and selected by blasticidin resistance. The isogenic integration of the construct minimizes gene dose effects and improves assay reproducibility. Stably integrated single cell derived clones were selected and characterized for aminoglycoside mediated readthrough. […] Readthrough of Y122X accumulates an intracellular localized fusion protein approximately 65.5 kDa in size as controlled by western blot analysis and immunofluorescence using an anti-renilla antibody. The eGFP reporter pre-PTC mutation serves as visual control for genetic stability of the screening clones and minimizes protein degradation of small fusion protein amounts. In the assay, compound concentration was 10 μM. In miniaturized 1536 well format 2000 cells were dispensed in 4 μl/well and incubated for 24 h at 37° C., 5% CO2. 40 nl compounds were placed on the cells with control wells containing 1 ul Paramomycin and 14.4 mM final concentration. Compounds were incubated for 24 h. Renilla Glo substrate (2.5 ul) was added and plates were centrifuged and processed for luminescence measurement using various readers. Activity calculation was done using the equation: A1(%)=100*(S−NC)/(AC−NC) where AC, NC and S correspond to active controls (injection of Stimulation buffer=100% stimulation), neutral controls (buffer injection which Iloprost EC10) and screening samples (S). NC corresponds to 0% activity whereas AC is 100% activity (14 mM paromomycin). False positive artifacts were removed in confirmation and validation screening using the same assay format followed by counterscreening using the respective wildtype construct (w/o PTC mutation) cell model. Compounds were tested up to 100 μM compound concentration.

[2] = test system: alpha-L-Iduronidase W402X in Hurler patient derived fibroblast cells; experiment: Hurler patient derived fibroblast cell cultures, restored alpha-L-iduronidase activity (W402X readthrough); format: cell-based, human; conditions: Homo sapiens, Fibroblast, 192 h, 8 days incubation, highest concentration 20 uM; for Emax: 14 mM paromomycin = 100% control, read-out: Amax
From the text: Activity of compounds of the present invention was examined in patient derived fibroblast cells. The genotyped cells were derived from the Coriell Institute (# GM00798) and contain an in frame homozygous TGG to TAG change at nucleotide 1293 of exon 9 which results in a W402X mutation. The W402X mutation is one of the most common Hurler syndromes causing loss of function mutation. Between 60-70% of genotyped patients contain either the Q70X and/or the W402X in mutation and are classified as severe MPSI patients. This TAG stop codon triplet is permissive to aminoglycoside mediated translational readthrough which served as activity control for compound testing. Readthrough of W402X restores alpha-L-Iduronidase activity which results in removal of lysosomal accumulated Glycosaminoglycan's. Iduronidase expression could neither be detected by Taqman PCR© nor by enzyme activity or ELISA methods without compound stimulation. Compounds were tested in concentration response mode. Therefore 5000 patient cells/40 ul/well in 384 well plates were used. Compound dilutions were derived from freshly prepared 10 mM compound stock solutions. Highest concentration was 20 uM and subsequently diluted 1: 3.16 (8 point dilutions, n=4). Final DMSO concentration was below 0.5% and tested to be without effect on cell viability, growth and readthrough. Cells were incubated for 8 days with one cell media and compound exchange at day 3. Thereafter cell media was removed and cells were lysed (0.4 M Sodiumformate, 0.1% NaN3, 0.9% NaCl, 0.2% Triton, pH 3.5). Restored alpha-L-iduronidase activity in cell lysates was measured with the fluorescent 4-MU iduronide substrate (5 ul of 0.4 mM 4 Methylumbelliferyl alpha-L-iduronide/well) after 48 h incubation. Paromomycin was used as reference control (14 mM=100% control).

## CC1CCc2c(c(=O)c3c(=O)n(-c4ccccc4)c(C(C)C)nc3n2C)C1 (stereo not shown) [Example 3.10, 2-isopropyl-7,10-dimethyl-3-phenyl-6,7,8,9-tetrahydropyrimido[4,5-b]quinoline-4,5(3H,10H)-dione]
[1]
  Emax: 237%
  AC50: 12 µM
[2]
  Emax: 6%

## CC(C)c1nc2c(c(=O)c3c(n2C)CCCC3)c(=O)n1-c1ccccc1 [Example 3.11, 2-isopropyl-10-methyl-3-phenyl-6,7,8,9-tetrahydropyrimido[4,5-b]quinoline-4,5(3H,10H)-dione]
[1]
  Emax: 137%
  AC50: 22 µM
[2]
  Emax: 17%

## Cc1[nH]c2nc(C3CCC3)n(-c3ccccc3)c(=O)c2c(=O)c1C [Example 3.12, 2-cyclobutyl-6,7-dimethyl-3-phenylpyrido[2,3-d]pyrimidine-4,5(3H,8H)-dione]
[1]
  Emax: 505%
  AC50: 4.9 µM
[2]
  Emax: 183%
[2]; 8 point dilutions
  AC50: 12 µM

## Cc1c(C)n(C)c2nc(C3CCC3)n(-c3ccccc3)c(=O)c2c1=O [Example 3.13, 2-cyclobutyl-6,7,8-trimethyl-3-phenylpyrido[2,3-d]pyrimidine-4,5(3H,8H)-dione]
[1]
  Emax: 297%
  AC50: 9.2 µM
[2]
  Emax: 34%
